Experimental data reported in patent US9303088B2, “Detecting and treating breast cancer resistance to EGFR inhibitors” (The Regents of the University of California, priority 2009, dated 2016).

Experiments:
HMT3522 T4-2 cells = test: Phenotypic reversion of malignant T4-2 cells cultured in 3D lrECM with signaling inhibitors; format: cell-based, human; conditions: for phenotypic reversion of control T4-2 cells: vector control T4-2 cells (FIG. 17C); for induction of phenotypically normal acinus-like structures: T4-2 cells in 3D lrECM
Description: The retroviral cDNA library from malignant T4-2 cells was re-introduced into T4-2 cells. Retrovirus transduced T4-2 cells were subsequently grown on 3D1rECM with one of the small molecule inhibitors, AG1478 (EGFR inhibitor), PD98059 (mitogen-activated protein kinase inhibitor), or LY294002 (PI3K inhibitor), […] […] After the second round of screening, the cDNA inserts were recovered from genomic DNA by PCR using primers to the flanking sequences of the retroviral cloning vector. Genomic DNA was isolated from selected clones grown on the monolayer.
Microscopic visual fields of FIG. 3 show non-malignant HMT3522 S1 cells form polarized acinar structures (FIG. 3A) resembling normally differentiated acinus in vivo, whereas malignant T4-2 cells form disorganized colonies constantly growing on 3D 1rECM (FIG. 3B).
(§1) FIG. 4B is a western blot of extracted cell lysates blotted with antibodies against EGFR, β-integrin, phosphorylated EGFR, and E-cadherin, which was used as a loading control.

[1] = test system: FAM83A overexpressing T4-2 cells; test: Phenotypic reversion of FAM83A-overexpressing T4-2 cells in 3D lrECM with inhibitors; format: cell-based, human; conditions: for phenotypic reversion of full-length FAM83A overexpressing T4-2 cells: 3D lrECM (FIG. 5B)
EGFR = test: Western blot of EGFR, phosphorylated EGFR and β1-integrin in AG1478-treated T4-2 cells; format: cell-based, human; conditions: 3D lrECM, western blot (FIG. 4B)
Description: as §1

FAM83A [2] = test: RT-PCR and western blot of endogenous FAM83A in AG1478-treated T4-2 cells; format: cell-based, human
Description: The expression level of endogenous FA[…] in non-reverted and reverted T4-2 cells was analyzed by RT-PCR and western blot with antibody against endogenous FA[…]. […] RNA levels in T4-2 cells cultured in both 2D monolayer and 3D 1rECM treated with AG1478 or vehicle control DMSO for 4 days. FIG. 7B is a bar graph quantification of the results from FIG. 7A. […] RNA levels in S1 cells growing in 2D or 3D cultures. FIG. 7C is a western blot comparison of FA[…] protein levels in S1 and T4-2 cells growing in 2D or 3D cultures in the presence or absence of AG1478.

[3] = test system: Vector control T4-2 cells; test: Lapatinib treatment of vector control T4-2 xenografts in mice; format: in vivo, BALB/c-nude mice
Description: (§2) Animal experiments were performed under federal guidelines and approved by Institutional Animal Welfare and Research Committee at LBN. Exponentially growing T4-2 cells or MDA-MB-468 cells were suspended at the density of 5×10^6 or 10×10^6, respectively, in 100 μl medium containing DMEM/F12 medium (50%) and Matrigel (50%). Cell suspension was subcutaneously injected into the rear flank of 6-8 wk old athymic female BALB/c-nude mice (nu/nu) (Charles River Laboratories) (n=8 per group). Tumor volumes were measured every other day. ANOVA 2-way analysis with Bonferroni post test was used to determine p-value. At the end of experiments, mice were sacrificed and subjected to pathological examinations.
(§3) The ability of FAM83A to confer cancer cell resistance to EGFR inhibitor in vivo was determined Vector control or FAM83A-overexpressing T4-2 cells were xenografted into mice, which were orally administered lapatinib by oral gavage at 30 mg/kg or 100 mg/kg twice daily for 3 weeks. […] Then, mice were randomized into vehicle (0.5% hydroxypropylmethylcellulose with 0.1% Tween 80 in water; n=8) and experimental treatment groups (n=8) to receive oral gavage of lapatinib at 30 mg/kg or 100 mg/kg twice daily for 3 weeks.

[4] = test system: FAM83A-overexpressing T4-2 cells; test: Lapatinib treatment of FAM83A-overexpressing T4-2 xenografts in mice; format: in vivo, BALB/c-nude mice
Description: as §2, §3

MDA-MB468 cells = test: Xenograft growth of FAM83A shRNA-treated MDA-MB468 cells in nude mice; format: in vivo, BALB/c-nude mice; conditions: fraction of the control cells (FIG. 17B)
Description: as §2
To confirm this observation for cells with stable FAM83A-depletion and a different genetic background, control or FAM83A shRNA-treated MDA-MB468 cells were subcutaneously injected into the rear flank of nude mice and monitored for their growth. For FAM83A shRNA production, a double-stranded DNA oligonucleotide was generated from the following sequences: sense, 5′-[…]-3′ (SEQ ID NO:7); antisense, 5′-[…]-3′ (SEQ ID NO:8) (target sequence underlined; BamH1/EcoR1 cohesive ends italicized). Both oligonucleotides were annealed and ligated into BamH1/EcoR1 site of pGreen puro lentival vector (System Biosciences).

FAM83A [5] = test: FAM83A protein knock-down by siRNA in T4-2 cells (western blot and immunofluorescence with FAM83A polyclonal antibody); format: cell-based, human; conditions: T4-2 lysates, western blot vs scrambled control (FIG. 14B)
Description: The specificity of FAM83A polyclonal antibody was tested by performing western blot and immunofluorescence analysis in two different sets of FAM83A-specific siRNA-treated T4-2 cells (siRNA#1, SEQ ID NO:1; and siRNA#2, SEQ ID NO:2) using the FAM83A polyclonal antibody.

[6] = lapatinib 30 mg/kg, hematoxylin and eosin (FIG. 18B)
[7] = lapatinib oral gavage twice daily for 3 weeks, 30 mg/kg (FIG. 17D)

With `COc1cc2ncnc(Nc3ccc(F)c(Cl)c3)c2cc1OCCCN1CCOCC1` [gefitinib] the “phenotypic reversion of control T4-2 cells” value (HMT3522 T4-2 cells) was “reverted”.

AG1478 was tested, and the “morphology of T4-2 cells treated with AG1478” value (HMT3522 T4-2 cells; 3D lrECM, 10 days, different concentrations (FIG. 4A)) was “form growth arrested acinus-like structures”, the “induction of phenotypically normal acinus-like structures” value (HMT3522 T4-2 cells; 100 nM AG1478) was “phenotypically normal acinus-like structures were induced” and the “phenotypic reversion of full-length FAM83A overexpressing T4-2 cells” value [1] was “not”. For the same molecule, the EGFR protein level (EGFR) was “decreased levels”, the “phosphorylated EGFR level” value (EGFR) was “lower levels” and the β1-integrin protein level (EGFR) was “decreased levels”. The “FAM83A mRNA expression” value (FAM83A [2]; AG1478 4 days, RT-PCR) was “decreased” and the FAM83A protein expression (FAM83A [2]; AG1478, western blot) was “decreased”.

For `CS(=O)(=O)CCNCc1ccc(-c2ccc3ncnc(Nc4ccc(OCc5cccc(F)c5)c(Cl)c4)c3c2)o1` [lapatinib], the “phenotypic reversion of control T4-2 cells” value (HMT3522 T4-2 cells) was “reverted”, the “structure of FAM83A-overexpressing T4-2 cells in presence of EGFR inhibitor” value ([1]; FIG. 17C) was “maintained disorganized structures” and the “dose dependence of tumor inhibitory action on control cells” value ([3]; 30 mg/kg or 100 mg/kg oral gavage twice daily (FIG. 18A)) was “independent of the dose above 30 mg/kg”. The “pathological examination of sectioned control tumors” value [3, 6] was “well-circumscribed and distinctly separated from the stromal regions”, the “growth of control tumors” value [3, 7] was “significantly inhibited” and the “pathological examination of sectioned FAM83A-overexpressing tumors” value [4, 6] was “had been invading the stromal regions”. The “size of lapatinib-treated FAM83A-overexpressing tumors relative to controls” value ([4]; lapatinib oral gavage twice daily for 3 weeks (FIG. 17D)) was 5 times and the “growth of FAM83A-overexpressing tumors” value [4, 7] was “not affected”.

In the case of `COc1cccc(-c2cc(=O)c3ccccc3o2)c1N` [PD98059], the “induction of phenotypically normal acinus-like structures” value (HMT3522 T4-2 cells; 20 μM PD98059) is reported as “phenotypically normal acinus-like structures were induced” and the “phenotypic reversion of full-length FAM83A overexpressing T4-2 cells” value [1] is reported as “undergo phenotypic reversion”.

B1: FAM83A shRNA: shRNA from double-stranded DNA oligonucleotide (SEQ ID NO:7 and 8) ligated into pGreen puro lentiviral vector (nucleic acid)
sense: GATCCGTGTGGAAGGAGAGATATACTTCCTGTCAGATATATCTCTCCTTCCACACTTTTTG
antisense: AATTCAAAAAGTGTGGAAGGAGAGATATATCTGACAGGAAGTATATCTCTCCTTCCACACG
With B1 the “tumor growth relative to control cells” value (MDA-MB468 cells) was “¼”.

B2: siRNA#1: one of two different sets of FAM83A-specific siRNA; printed as SEQ ID NO:1 (nucleic acid)
chain: ATGAGCCGGTCAAGGCACCTGGGCAAAATCCGGAAGCGTCTGGAAGATGTCAAGAGCCAGTGGGTCCGGCCAGCCAGGGCTGACTTTAGTGACAACGAGAGTGCCCGGCTGGCCACGGACGCCCTCTTGGATGGGGGTTCTGAAGCCTACTGGCGGGTGCTCAGCCAGGAAGGCGAGGTGGACTTCTTGTCCTCGGTGGAGGCCCAGTACATCCAGGCCCAGGCCAGGGAGCCCCCGTGTCCCCCAGACACCCTGGGAGGGGCGGAAGCAGGCCCTAAGGGACTGGACTCCAGCTCCCTACAGTCCGGCACCTACTTCCCTGTGGCCTCAGAGGGCAGCGAGCCGGCCCTACTGCACAGCTGGGCCTCAGCTGAGAAGCCCTACCTGAAGGAAAAATCCAGCGCCACTGTGTACTTCCAGACCGTCAAGCACAACAACATCAGAGACCTCGTCCGCCGCTGCATCACCCGGACTAGCCAGGTCCTGGTCATCCTGATGGATGTGTTCACGGATGTGGAGATCTTCTGTGACATTCTAGAGGCAGCCAACAAGCGTGGGGTGTTCGTTTGTGTGCTCCTGGACCAGGGAGGTGTGAAGCTCTTCCAGGAGATGTGTGACAAAGTCCAGATCTCTGACAGTCACCTCAAGAACATTTCCATCCGGAGTGTGGAAGGAGAGATATACTGTGCCAAGTCAGGCAGGAAATTCGCTGGCCAAATCCGGGAGAAGTTCATCATCTCGGACTGGAGATTTGTCCTGTCTGGATCTTACAGCTTCACCTGGCTCTGCGGACACGTGCACCGGAACATCCTCTCCAAGTTCACAGGCCAGGCGGTGGAGCTGTTTGACGAGGAGTTCCGCCACCTCTACGCCTCCTCCAAGCCTGTGATGGGCCTGAAGTCCCCGCGGCTGGTCGCCCCCGTCCCGCCCGGAGCAGCCCCGGCCAATGGCCGCCTTAGCAGCAGCAGTGGCTCCGCCAGTGACCGCACGTCCTCCAACCCCTTCAGCGGCCGCTCGGCAGGCAGCCACCCCGGTACCCGAAGTGTGTCCGCGTCTTCAGGGCCCTGTAGCCCCGCGGCCCCACACCCGCCTCCACCGCCCCGGTTCCAGCCCCACCAAGGCCCTTGGGGAGCCCCGAGTCCCCAGGCCCACCTCTCCCCGCGGCCCCACGACGGCCCGCCCGCCGCTGTCTACAGCAACCTGGGGGCCTACAGGCCCACGCGGCTGCAGCTGGAGCAGCTGGGCCTGGTGCCGAGGCTGACTCCAACCTGGAGGCCCTTCCTGCAGGCCTCCCCTCACTTCTGA
modifications: Homo sapien
For B2, the “23 kDa FAM83A band” value (FAM83A [5]) was “reduced” and the “99 kDa FAM83A band” value (FAM83A [5]) was “reduced”.
